Experimental data: US10144706B2 (BRISTOL-MYERS SQUIBB COMPANY, priority 2016, dated 2018)
Like-named read-outs stand apart in the source and are kept apart here.

Biological target: T1, PD-1/PD-L1 interaction (PD-1-Ig / PD-L1-His) (Homo sapiens, UniProt Q9NZQ7)
T1 construct: hPDL1(18-239)-TVMV-His; TVMV protease site linker (C); made in house; host or cells: HEK293T
Assay: PD-1/PD-L1 Homogenous Time-Resolved Fluorescence (HTRF) binding assay
Conditions: PD-L1-His 10 nM, PD-1-Ig 20 nM, read-out: Range or IC50
Method in brief: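 HTRF detection used 1 nM europium-cryptate anti-Ig and 20 nM APC anti-His. Compounds first saw 10 nM PD-L1-His for 15 min, and 20 nM PD-1-Ig was then added for another 15 min. Buffer was dPBS plus 0.1% BSA and 0.05% Tween-20. All concentrations are final.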

T1 sequence (Q9NZQ7 with tags, fused parts or gaps): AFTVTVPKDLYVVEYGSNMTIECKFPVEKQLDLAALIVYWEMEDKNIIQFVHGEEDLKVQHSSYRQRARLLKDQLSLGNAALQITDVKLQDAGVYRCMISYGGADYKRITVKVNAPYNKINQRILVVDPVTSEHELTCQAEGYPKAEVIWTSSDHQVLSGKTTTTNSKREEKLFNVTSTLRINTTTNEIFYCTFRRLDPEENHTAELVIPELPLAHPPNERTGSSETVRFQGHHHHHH

IC50 (IC50 range class) [nM]	IC50 (numeric IC50) [nM]	SMILES
	7.1	Cc1c(OCCCNCCc2ccncc2)cccc1-c1cccc(OCCCN[C@@H]2C[C@H](CO)[C@@H](O)[C@H]2O)c1C [Example 2089, (1R,2S,3R,5R)-3-((3-((2,2′-dimethyl-3′-(3-((2-(pyridin-4-yl)ethyl)amino)propoxy)-[1,1′-biphenyl]-3-yl)oxy)propyl)amino)-5-(hydroxymethyl)cyclopentane-1,2-diol]
20.1 to 90		COC(=O)[C@](C)(CO)NCc1cc(Cl)c(OCc2cccc(-c3cccc(COc4cc(OCc5cncc(C#N)c5)c(CN[C@@](C)(CO)C(=O)OC)cc4Cl)c3C)c2C)cc1OCc1cncc(C#N)c1 [Example 40150]
0.04 to 20		Cc1c(COc2cc(OCc3cncc(C#N)c3)c(CN[C@H](C(=O)O)[C@@H](C)OC(C)(C)C)cc2Cl)cccc1-c1cccc(COc2cc(OCc3cncc(C#N)c3)c(CN[C@H](C(=O)O)[C@@H](C)OC(C)(C)C)cc2Cl)c1C [Example 40930]
90.1 to 1000		N#Cc1cncc(COc2cc(OCc3cccc(-c4cccc(COc5cc(OCc6cncc(C#N)c6)c(C(=O)NCC6(CO)CC6)cc5Cl)c4Cl)c3Cl)c(Cl)cc2C(=O)O)c1 [Example 90040]
1000 to 10000		Cc1c(NC(=O)CCN2CC[C@@H](O)C2)cccc1-c1cccc(OCCCN2CC[C@@H](O)C2)c1C [Example 3013, 3-((R)-3-hydroxypyrrolidin-1-yl)-N-(3′-(3-((R)-3-hydroxypyrrolidin-1-yl)propoxy)-2,2′-dimethyl-[1,1′-biphenyl]-3-yl)propanamide]
0.04 to 20		Cc1c(COc2cc(OCc3cncc(C#N)c3)c(CN3CC(C(=O)O)C3)cc2Cl)cccc1-c1cccc(COc2cc(OCc3cncc(C#N)c3)c(CN3CC(C(=O)O)C3)cc2Cl)c1C [Example 40420]
0.04 to 20		CC(CO)(CO)NCc1cc(Cl)c(OCc2cccc(-c3cccc(COc4cc(OCc5cncc(C#N)c5)c(CNC(C)(CO)CO)cc4Cl)c3)c2)cc1OCc1cncc(C#N)c1 [Example 40010]
	115	N#Cc1cncc(COc2cc(OCc3cccc(-c4cccc(COc5cc(OCc6cncc(C#N)c6)c(CN6CCC(O)(C(=O)O)CC6)cc5Cl)c4)c3)c(Cl)cc2CO)c1 [Example 50040]
0.04 to 20		Cc1c(COc2cc(OCc3cncc(C#N)c3)c(CN[C@@H](C(=O)O)[C@H](C)O)cc2Cl)cccc1-c1cccc(COc2cc(OCc3cncc(C#N)c3)c(CN[C@@H](C(=O)O)[C@@H](C)O)cc2Cl)c1C [Example 41130]
90.1 to 1000		Cc1c(OCCCNCCN(C)C)cccc1-c1cccc(OCCCN2CC[C@@H](O)C2)c1C [Example 2007, (R)-1-(3-((3′-(3-((2-(dimethylamino)ethyl)amino)propoxy)-2,2′-dimethyl-[1,1′-biphenyl]-3-yl)oxy)propyl)pyrrolidin-3-ol]
20.1 to 90		Cc1c(COc2cc(OCc3cc(F)cc(F)c3)c(CN(C)[C@H](C(=O)O)C(C)C)cc2Cl)cccc1-c1cccc(COc2cc(OCc3cc(F)cc(F)c3)c(CN(C)[C@H](C(=O)O)C(C)C)cc2Cl)c1C [Example 5015, (2S,2′S)-2,2′-((((((2,2′-dimethyl-[1,1′-biphenyl]-3,3′-diyl)bis(methylene))bis(oxy))bis(5-chloro-2-((3,5-difluorobenzyl)oxy)-4,1-phenylene))bis(methylene))bis(methylazanediyl))bis(3-methylbutanoic acid)]
20.1 to 90		Cc1c(COc2cc(OCc3cncc(C#N)c3)c(CN[C@H](C(N)=O)C3CC3)cc2Cl)cccc1-c1cccc(COc2cc(OCc3cncc(C#N)c3)c(CN[C@H](C(N)=O)C3CC3)cc2Cl)c1C [Example 40670]
1000 to 10000		Cc1ccc(OCCCN2CC[C@@H](O)C2)cc1-c1cccc(OCCCN2CC[C@@H](O)C2)c1C [Example 1004, (3R,3′R)-1,1′-(((2,6′-dimethyl-[1,1′-biphenyl]-3,3′-diyl)bis(oxy))bis(propane-3,1-diyl))bis(pyrrolidin-3-ol)]
0.04 to 20		COc1cc(OCc2cccc(-c3cccc(COc4cc(OC)c(CNCc5cc[nH]n5)cc4Cl)c3C)c2C)c(Cl)cc1CNCc1cc[nH]n1 [Example 5032, 1,1′-((((2,2′-dimethyl-[1,1′-biphenyl]-3,3′-diyl)bis(methylene))bis(oxy))bis(5-chloro-2-methoxy-4,1-phenylene))bis(N-((1H-pyrazol-3-yl)methyl)methanamine)]
0.04 to 20		Cc1c(OCCCN[C@@H]2C[C@H](CO)[C@@H](O)[C@H]2O)cccc1-c1cccc(OCCCN[C@@H]2C[C@H](CO)[C@@H](O)[C@H]2O)c1C [Example 2088, (1S,1′S,2R,2′R,3R,3′R,5R,5′R)-5,5′-((((2,2′-dimethyl-[1,1′-biphenyl]-3,3′-diyl)bis(oxy))bis(propane-3,1-diyl))bis(azanediyl))bis(3-(hydroxymethyl)cyclopentane-1,2-diol)]
0.04 to 20		Cc1c(OCCCNCCCn2ccnc2)cccc1-c1cccc(OCCCN2CC[C@@H](O)C2)c1C [Example 2020, (R)-1-(3-((3′-(3-((3-(1H-imidazol-1-yl)propyl)amino)propoxy)-2,2′-dimethyl-[1,1′-biphenyl]-3-yl)oxy)propyl)pyrrolidin-3-ol]

The next lines start with the compound.

SMILES	IC50 (IC50 range class) [nM]	IC50 (numeric IC50) [nM]
Cc1c(OCCCN[C@@H](Cc2cccnc2)C(=O)O)cccc1-c1cccc(OCCCN2CC[C@@H](O)C2)c1C [Example 2117, (S)-2-((3-((3′-(3-((R)-3-hydroxypyrrolidin-1-yl)propoxy)-2,2′-dimethyl-[1,1′-biphenyl]-3-yl)oxy)propyl)amino)-3-(pyridin-3-yl)propanoic acid]	90.1 to 1000	
Cc1c(OCCCNCCN2CCOCC2)cccc1-c1cccc(OCCCN2CC[C@@H](O)C2)c1C [Example 2005, (R)-1-(3-((2,2′-dimethyl-3′-(3-((2-morpholinoethyl)amino)propoxy)-[1,1′-biphenyl]-3-yl)oxy)propyl)pyrrolidin-3-ol]	20.1 to 90	
Cc1c(OCCCN(C)Cc2cccnc2)cccc1-c1cccc(OCCCN2CC[C@@H](O)C2)c1C [Example 2049, (R)-1-(3-((2,2′-dimethyl-3′-(3-(methyl(pyridin-3-ylmethyl)amino)propoxy)-[1,1′-biphenyl]-3-yl)oxy)propyl)pyrrolidin-3-ol]	90.1 to 1000	
CCC[C@@H](C(=O)O)N(C)Cc1cc(Cl)c(OCc2cccc(-c3cccc(COc4cc(OCc5ccc(-n6cccn6)nc5)c(CN(C)[C@@H](CCC)C(=O)O)cc4Cl)c3C)c2C)cc1OCc1ccc(-n2cccn2)nc1 [Example 5026, (2S,2′S)-2,2′-((((((2,2′-dimethyl-[1,1′-biphenyl]-3,3′-diyl)bis(methylene))bis(oxy))bis(2-((6-(1H-pyrazol-1-yl)pyridin-3-yl)methoxy)-5-chloro-4,1-phenylene))bis(methylene))bis(methylazanediyl))dipentanoic acid]	0.04 to 20	
N#Cc1cncc(COc2cc(OCc3cccc(-c4cccc(COc5cc(OCc6cncc(C#N)c6)c(C(=O)NCCO)cc5Cl)c4Cl)c3Cl)c(Cl)cc2C(=O)NCCO)c1 [Example 80200]	90.1 to 1000	
C[C@](CO)(NCc1cc(Cl)c(OCc2cccc(-c3cccc(COc4cc(OCc5cncc(C#N)c5)c(CN[C@@](C)(CO)C(=O)O)cc4Cl)c3)c2)cc1OCc1cncc(C#N)c1)C(=O)O [Example 40040]	0.04 to 20	
Cc1c(OCCCN2CC[C@@H](O)C2)cccc1-c1cccc(OCCCN2CC[C@@H](F)C2)c1C [Example 3035, (R)-1-(3-((3′-(3-((R)-3-fluoropyrrolidin-1-yl)propoxy)-2,2′-dimethyl-[1,1′-biphenyl]-3-yl)oxy)propyl)pyrrolidin-3-ol]	0.04 to 20	
Cc1c(COc2cc(OCc3cncc(C#N)c3)c(CN[C@@H](Cc3c[nH]c4ccccc34)C(=O)O)cc2Cl)cccc1-c1cccc(COc2cc(OCc3cncc(C#N)c3)c(CN[C@@H](Cc3c[nH]c4ccccc34)C(=O)O)cc2Cl)c1C [Example 40700]	0.04 to 20	
CC(=O)N[C@@H]1CCN(CCCOc2cccc(-c3cccc(OCCCN4CC[C@@H](O)C4)c3C)c2C)C1 [Example 2018, N—((R)-1-(3-((3′-(3-((R)-3-hydroxypyrrolidin-1-yl)propoxy)-2,2′-dimethyl-[1,1′-biphenyl]-3-yl)oxy)propyl)pyrrolidin-3-yl)acetamide]		69
Cc1c(OCCCN2CC(N(C)C)C2)cccc1-c1cccc(OCCCN2CC[C@@H](O)C2)c1C [Example 2002, (R)-1-(3-((3′-(3-(3-(dimethylamino)azetidin-1-yl)propoxy)-2,2′-dimethyl-[1,1′-biphenyl]-3-yl)oxy)propyl)pyrrolidin-3-ol]		99
Cc1c(COc2cc(OCc3cncc(C#N)c3)c(Cl)cc2Cl)cccc1-c1cccc(COc2cc(OCc3cncc(C#N)c3)c(CN[C@@H](C(=O)O)[C@H](C)O)cc2Cl)c1C [Example 70040]		1050
Cc1c(OCCCNCCc2cn(C)cn2)cccc1-c1cccc(OCCCN2CC[C@@H](O)C2)c1C [Example 2043, (R)-1-(3-((2,2′-dimethyl-3′-(3-((2-(1-methyl-1H-imidazol-4-yl)ethyl)amino)propoxy)-[1,1′-biphenyl]-3-yl)oxy)propyl)pyrrolidin-3-ol]	90.1 to 1000	
Cc1c(COc2cc(OCc3cc(F)cc(F)c3)c(CN(C)[C@@](C)(CO)C(=O)O)cc2Cl)cccc1-c1cccc(COc2cc(OCc3cc(F)cc(F)c3)c(CN(C)[C@@](C)(CO)C(=O)O)cc2Cl)c1C [Example 5014, (2S,2′S)-2,2′-((((((2,2′-dimethyl-[1,1′-biphenyl]-3,3′-diyl)bis(methylene))bis(oxy))bis(5-chloro-2-((3,5-difluorobenzyl)oxy)-4,1-phenylene))bis(methylene))bis(methylazanediyl))bis(3-hydroxy-2-methylpropanoic acid)]	20.1 to 90	
COC(=O)[C@@H](NCc1cc(Cl)c(OCc2cccc(-c3cccc(COc4cc(OCc5cncc(C#N)c5)c(CN[C@H](C(=O)OC)[C@@H](C)OC(C)(C)C)cc4Cl)c3C)c2C)cc1OCc1cncc(C#N)c1)[C@@H](C)OC(C)(C)C [Example 40950]		168
